Earlier results as cited in patent publication US7198895B2, “In vitro cell-based methods for biological validation and pharmacological screening of chemical entities and biologicals” (priority 2000, dated 2007).

What was measured:
[1] = treated subjects
HepG2 cells = HepG2 cells exposed to cis-platinum; ref (17)

SMILES | life-threatening adverse event [1] | number of genes consistently differentially expressed (HepG2 cells) [genes] | number of genes differentially expressed (HepG2 cells) [genes]
CCNC(C)Cc1cccc(C(F)(F)F)c1 (stereo not drawn) [Fenfluramine] | valvular fibrosis | – | –
N.N.[Cl][Pt][Cl] [cis-platinum] | – | 14 | ≥ 200
